Data published in patent US7259145B2, “Mechanically activated channel blocker” (The Research Foundation of State University of New York, priority 2004, dated 2007).
Entries after “also recorded” stand apart in the source; their conditions may differ. Non-standard residues stand in square brackets, D forms with d. No end group written: not given here.

Experiments:
[1] = test system: stretch-activated channels (SACs); test: SAC currents, outside-out patch of rat astrocytes (pressure clamp); type: cell-based; settings: for inhibition of SACs (averaged current): 5 μM, rat astrocyte outside-out patch, FIG. 2
Method: (§1) Primary reactive rat astrocytes cultures (passages 4 to 10) were prepared as previously described. Primary cultures of chick heart cells were prepared from 11-day-old embryos as previously described (Bett et al., J. Membr. Biol. 173, 237-254, 2000).
(§2) Outside-out patches were formed using pipettes containing 140 mM KCl, 2 mM MgCl2, 10 mM HEPES and 0.5 mM EGTA (as K ? salts). SAC currents were recorded using an Axopatch 200B patch clamp, with pClamp9 software and a Digidata 1322A acquisition system (Axon Instruments). Pressure was applied to the patch pipette with an HSPC-1 pressure clamp, and the patch was perfused using an ALA MP285 perfusion system (ALA Scientific Instruments). GsMTx4 or analog was dissolved in the perfusion solution: 140 mM NaCl, 10 mM Na-HEPES, 5 mM KCl, and 1 mM MgCl2. All experiments were repeated […] times.

gA channels = test: Gramicidin (gA) channel gating in lipid bilayer; type: biochemical
Method: FIG. 3 is a representation of the effect of GsMTx4 on gA channels. a, Current traces before and after addition of 200 nM GsMTx4 to both sides of a bilayer doped with chain-shortened des-Val 1-Gly 2-gA (gA2(13)) and [Ala 1]gA (AgA(15)) (numbers in parenthesis denote number of residues in the sequence): gA2 is the enantiomer of gA20. b, c, Single-channel currents (b) and lifetimes (c) as a function of GsMTx4 concentration (see Methods). d, Average lifetime (t) as a function of channel length, helix sense and identity of the aromatic at the channel/solution interface. gA2(13) and AgA(15) as above, AgA2(15) is [D-Ala 1]gA2, gT is [Tyr9,11,13,15]gA (ref. 21). 200 nM GsMTx4; columns and error bars denote mean±s.d. (n≧3).
The effect of L-GsMTx-4 on gA gating was first determined. gA channels are dimers formed by the transbilayer association of monomers in opposing monolayers (O'Connell et al., Science 250, 1256-1259, 1990). Channel formation is generally associated with local bilayer thinning, which makes gA monomer ⇄ dimer equilibrium and thus the channel lifetime and appearance rate sensitive to bilayer thickness, elastic moduli and curvature stress. Thus, if GsMTx4 binds to the lipid bilayer, one would expect it to also alter the lipid packing adjacent to the channel and thus the gA gating kinetics and, because it is cationic decrease the channel current.

TRPC1 = test: Stretch activated channels in CHO cells transfected to express TRPC1; type: cell-based; settings: CHO cells expressing TRPC1
cationic SACs [2] = test: Inhibition and gating of cationic SACs in vertebrate cell types (affinity, apparent rates); type: cell-based
Method: GsMTx4 inhibits ubiquitous cationic SACs in a variety of vertebrate cell types (200-600 nM, for example, chick heart, rat astrocytes and skeletal muscle, and human smooth muscle) (Gottlieb et al., Current Drug Targets—CNS & Neurological Disorders 3:287-295, 2004) despite the fact that they have different kinetic properties and presumably different structure. […] While not intending to be bound by any particular theory, it is believed, based on predictions using the Poisson-Boltzmann models, that this effect is seen when GsMTx4 is located within about 1.5 nm of the channel vestibule.
To determine if GsMTx4 functions by altering bilayer properties, using the tryptophan fluorescence (Ladokhin et al., supra) of GsMTx4, we measured its binding to large unilamellar lipid vesicles. The partition coefficient, defined as ([GsMTx4]bil/[Lipid])/([GsMTx4]aq/[H2O]) (where the subscripts denote the bilayer and aqueous phases, respectively, for example see White et al., Methods Enzymol. 295, 62-87, 1998), was ˜3×10^5 corresponding to an adsorption coefficient of 10 ^−3 cm (defined as ^2bil/[GsMTx4 ]aq, where ^2bil denotes the surface density, in moles per unit area). […] This has two implications. First, the intrinsic affinity between a lipid-bound GsMTx4 and the channel could be quite modest and yet account for the observed KD (Kim et al., Biophys. J. 60, 135148, 1991). Second, the mean surface density of GsMTx4 is sufficiently high that fast exchange (50 ms) between the bulk bilayer and the lipids adjacent to the channel can alter the local (and global) bilayer mechanical properties. The apparent association and dissociation rates for SAC effects (Ka≈10^6 M^−1 s^−1, KD≈0.2 s^−1) are consistent with such a fast exchange (as well as slower, more specific binding).

[3] = test system: stretch-activated channels (SACs); test: SAC currents, outside-out patch of chick heart cells; type: cell-based
Method: as §1, §2

cationic SACs [4] = settings: chick heart, rat astrocytes and skeletal muscle, human smooth muscle; cited from earlier work
[5] = Binding to large unilamellar lipid vesicles by tryptophan fluorescence; type: physicochemical
Method: Fluorescence measurements were performed as described by Ladokhin et al. (Anal. Biochem. 285, 235245, 2000) with an AMJNCO-Bowman Series 2 spectrofluorimeter. The excitation and emission wavelengths were 280 nm (8 nm band pass, 08 polarizer) and 346 nm (16 nm band pass, 908 polarizer). Large unilamellar vesicles of egg lecithin (Avanti Polar Lipids) were formed by extrusion. Tryptophan (Sigma) and GsMTx4 titration experiments were performed in 8 mM phosphate buffer containing 1 mM EGTA at pH 7. Three spectra were collected at each lipid concentration with both tryptophan and GsMtx4 (both at 30μM). After background subtraction, the mean fluorescence intensity at each lipid concentration was corrected for vesicle scattering (Ladokhin et al., Anal. Biochem, 285, 235245, 2000) and normalized to the zero lipid fluorescence intensity. The results are reported assuming a vesicle diameter of 130 nm, and area per lipid in the monolayer of 0.7 nm2.
To determine if GsMTx4 functions by altering bilayer properties, using the tryptophan fluorescence (Ladokhin et al., supra) of GsMTx4, we measured its binding to large unilamellar lipid vesicles. […]

[6] = 5 mM GsMTx4 [sic], chick heart outside-out patch

Substance: D-GsMTx4: All-D-amino-acid enantiomer of GsMTx4, SEQ ID NO:1 GCLEFWWKCNPNDDKCCRPKLKCSKLFKLCNFSF-amide (G[dC][dL][dE][dF][dW][dW][dK][dC][dN][dP][dN][dD][dD][dK][dC][dC][dR][dP][dK][dL][dK][dC][dS][dK][dL][dF][dK][dL][dC][dN][dF][dS][dF]-NH2; not fully specified (bridges); printed as GCLEFWWKCNPNDDKCCRPKLKCSKLFKLCNFSF-amide; ends and bridges not checked; also: three disulfides after oxidative folding, pairing not given here)
- inhibition of SACs (averaged current) [1]: equivalent efficacy to the wild type L-form; also recorded: inhibit SACs with similar efficacy to GsMTx4; also recorded: at least as potent and may be more potent than L-GsMTx-4
- increase in gA channel appearance rates (gA channels; 400 nM D-GsMTx4): 10 fold
- increase in gA channel lifetime (gA channels; 400 nM D-GsMTx4): 4 fold

Substance: GsMTx4
- suppression of average inward current ([1]; 5 μM GsMTx4 (b40 also prints 5 mM), outside-out astrocyte patch): 80%
- open state dwell time distribution ([1]; 5 μM GsMTx4, data not shown): not affected
- inhibition of SACs (averaged current) [1]: both inhibit SACs
- membrane tension required for SAC activation ([1]; applied to extracellular face, FIGS. 1a and 1b): increasing the membrane tension required for activation
- inhibition of stretch activated channels (TRPC1): inhibited stretch activated channels
- gA single-channel current (gA channels; FIG. 3b): reduces the single-channel current
- increase in gA channel appearance rate (gA channels; GsMTx4, FIG. 3): 10-25 fold
- increase in gA open channel lifetime (gA channels; GsMTx4, FIG. 3c): approximately 2 fold
- apparent association rate for SAC effects (Ka) (cationic SACs [2]): ≈ 10^6 M^−1 s^−1
- apparent dissociation rate for SAC effects (KD) (cationic SACs [2]): ≈ 0.2 s^−1
- Kd (cationic SACs [2]; SAC gating, read-out: effective KD for gating): 500 nM
- reduction of average inward currents [3, 6]: 70%
- reduction of average outward currents [3, 6]: 90%
- unitary current amplitude, inward ([3]; 5 mM GsMTx4 [sic], 250 mV pipette potential as printed, control 1.74 pA): 1.58 pA
- unitary current amplitude, outward ([3]; 5 mM GsMTx4 [sic], pipette potential printed 150 mV / 50 mV, control 1.10 pA): 1.08 pA
- change in outward unitary current amplitude ([3]; in presence of GsMTx4): no change; also recorded: no observable effect
- reduction in inward unitary current amplitude ([3]; in presence of GsMTx4): 10%
- concentration inhibiting cationic SACs (cationic SACs [4]): 200 to 600 nM
- adsorption coefficient ([5]; corresponding to the partition coefficient): 10 ^−3 cm
- partition coefficient ([GsMTx4]bil/[Lipid])/([GsMTx4]aq/[H2O]) ([5]; large unilamellar lipid vesicles, pH 7): ~3×10^5
